Test results published in patent US20170158702A1, “MULTIVALENT RAS BINDING COMPOUNDS” (KYRAS THERAPEUTICS, INC., priority 2015, published 2017).
Structures can show the parent of a compound that is named as a salt.

Key:
Assay type in all cases: cell-based
NCI-H460 = experiment: Viability assay with NCI-H460 (CellTiter-Glo cytotoxicity assay, 72 h); details: NCI-H460 cell line, 72 h after compounds addition
In short: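 NCI-H460 cells, RPMI 1640 + 10% FBS, seeded 1200/well and adhered overnight, then exposed to compounds at 9 points, 2-fold dilution, in triplicate, 0.5% DMSO final. Cellular ATP measured by CellTiter-Glo luminescence 72 h after addition.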

U2OS = experiment: Viability assay with U2OS; details: viability assay per Example 57
Procedure: (§1) NCI-H460 (Epithelial lung tissue; carcinoma; large cell lung cancer) were cultured in RPMI Medium 1640 (Invitrogen-22400105) supplemented with 10% fetal bovine serum (FBS; Invitrogen-10099141). All the cell lines were maintained in a humidified incubator at 37° C. with 5% CO2. Cell culture media and supplements were purchased from Invitrogen, and tissue culture flasks were purchased from Corning, 96-well plates were purchased from Greiner. CellTiter-Glo Luminescent Cell Viability Assay kits were purchased from Promega (Promega-G7573), cells counter Vi-Cell was purchased from Beckman, D300e digital dispenser was purchased from Tecan, detection instrument Envision was purchased from PerkinElmer.
(§2) Paclitaxel was purchased from SELLECK, test compounds, such as any one of the compounds disclosed herein, attained solubility in DMSO and when diluted into culture media. DMSO, solutions containing the test compounds, and culture media were warmed to 37° C. or room temperature for the solution preparation and dilutions.
(§3) NCI-H460 Cell line were seeded in 96-well plates (1200/well) and allowed to adhere to overnight (100 uL/well), for drug treatments with 2 fold dilution, 9 dose points, triplicates or vehicle control, compound stock solutions were prepared in DMSO and use D300e digital dispenser to add compounds to the wells to give the indicated final drug concentrations. Final DMSO concentration was 0.5%. Cellular ATP concentrations were assessed by using the CellTiter-Glo Cell Viability Assay as per the manufacturer's instructions 72 h after compounds addition. Additional cells lines were assayed with any one of the compounds disclosed herein according to the procedures described for the viability assay with NCI-H460.
The viability assay with U2OS (epithelial bone tissue; osteosarcoma) was performed with compounds listed in Table 17 according to the procedures described in Example 57.

MIA PaCa-2 = experiment: Viability assay with MIA PaCa-2; details: MIA PaCa-2, viability assay per Example 57
In short: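 MIA PaCa-2 cells were seeded at 1200/well, allowed to adhere overnight, then treated in triplicate with 9-point 2-fold compound dilutions at 0.5% final DMSO. Viability was measured as cellular ATP by CellTiter-Glo luminescence 72 h after compound addition.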

NCI-H2023 = experiment: Viability assay with NCI-H2023; details: NCI-H2023, viability assay per Example 57
Procedure: as §1, §2, §3
A viability assay with NCI-H2023 (stage 3A, adenocarcinoma; non-small cell lung cancer) was performed with compounds listed in Table 16 according to the procedures described in Example 57.

HT-29 = experiment: Viability assay with HT-29; details: HT-29, viability assay per Example 57
In short: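 Cells seeded 1200/well, adhered overnight, then treated with 9-point 2-fold compound dilutions in triplicate (0.5% final DMSO). Viability taken as cellular ATP by CellTiter-Glo luminescence 72 h after compound addition.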

Measured: EC50

COc1ccc(-c2cn(CCCN)c3ccc(CN4CCN(Cc5c(Cl)cccc5Cl)CC4)cc23)cc1 [C22; Formic acid]
≤ 5 µM: NCI-H460 | U2OS | MIA PaCa-2 | NCI-H2023

NCCCn1cc(-c2ccc(OC(F)(F)F)cc2)c2cc(CN3CCN(Cc4cc(Cl)ccc4Cl)CC3)ccc21 [C156; HCl]
≤ 5 µM: HT-29 | NCI-H460 | U2OS | MIA PaCa-2

CC(C)(c1ccccc1Cl)N1CCN(Cc2ccc3c(c2)c(-c2ccc(OC(F)(F)F)cc2)cn3CCCN)CC1 [C166; Formic Acid]
≤ 5 µM: HT-29 | NCI-H460 | U2OS | MIA PaCa-2

NCCCCn1cc(-c2ccc(OC(F)(F)F)cc2)c2cc(CN3CCN(Cc4c(Cl)cccc4Cl)CC3)ccc21 [C43; HCl]
≤ 5 µM: NCI-H460 | U2OS | MIA PaCa-2 | NCI-H2023

NCCCn1cc(-c2ccc(OC(F)(F)F)cc2)c2cc(CN3CCC4(CCN(Cc5ccccc5Cl)CC4)C3)ccc21 [C169; HCl]
≤ 5 µM: HT-29 | NCI-H460 | U2OS | MIA PaCa-2

NCCCn1cc(-c2cccc(CN)c2)c2cc(CN3CCN(Cc4c(Cl)cccc4Cl)CC3)ccc21 [C168; HCl]
≤ 5 µM: HT-29 | NCI-H460 | U2OS | MIA PaCa-2
